In patent publication US20170314077A1, “SLFN11 AS BIOMARKER FOR AML” (BERGENBIO AS, priority 2014, published 2017):
“Also recorded” adds a separate entry of the source.

Columns and labels:
[1] = test system: MOLM13 leukemic cells (CD33/CD45-positive); assay: MOLM13 systemic xenograft model: CD33/CD45-positive leukemic cells by flow cytometry; assay type: in vivo, mice; details: 50 mg/kg for 4 days
Method: (§1) Material from an in vivo MOLM13 systemic model was also evaluated by flow cytometry. Expression of the previously evaluated biomarkers was examined in cells isolated from bone marrows and spleens of animals with systemic AML disease (MOLM13, inoculated for 7 days prior to treatment) treated with BGB324 at 50 mg/kg for 4 days.
Cells harvested from spleens, blood and bone marrows of the animals were stained with anti CD33 and CD45 antibodies, to determine if systemic disease was established. CD33/CD45-positive cells were identified in spleens (around 10-15%), bone marrows (35-40%) and in the blood (2-6%) of the animals, confirming that the disease was established.

pPLCγ1 = assay: MOLM13 systemic xenograft model: biomarker flow cytometry in CD33-positive cells, pPLCγ1; assay type: in vivo, mice; details: 50 mg/kg for 4 days
Method: as §1
(§2) Cells isolated from spleens and bone marrows were assessed for phosphorylation of Erk, PLCγ1 and Akt, and expression of PHGDH and SLFN11. The samples were also co-stained with CD33, and biomarker expression was only evaluated in CD33-positive cells.

[2] = test system: Slfn11 expression in MOLM-13 cells; assay: Flow cytometry of Slfn11 expression in MOLM-13 cells after treatment; assay type: cell-based, human
Method: (§3) Live cells were centrifuged at 300 g for 5 minutes, washed once with PBS and centrifuged again. Cells were then fixed in 4% PFA in PBS for 10 minutes at 37° C., and resuspended in PBS. Unless processed immediately, samples were at this point stored in PBS at 4° C. (up to three weeks) or at −80° C. (for long-term storage). If intracellular epitopes were stained, cells were permebealized in 90% MeOH for 30 minutes on ice. Unless processed immediately, samples were also be stored in 90% MeOH at −20° C. for up to two months.
(§4) Cells (150-200 000 per sample) were washed 1× in PBS and incubated in blocking buffer; (PBS+0.5% BSA) for 15 minutes at room temperature. Thereafter, cells were incubated with primary mouse-anti-human SLFN11 Ab at the indicated dilutions in incubation buffer (IB, PBS+0.5% BSA) for 1 hour at room temperature. Cells were then washed 3× with IB and incubated with secondary AB (conjugated to a fluorescent flurophore) at 1:1000 dilution in IB for 30 minutes at room temperature. Finally, cells were washed 3× in IB and resuspended in PBS. For costaining experiments, cells were subsequently incubated with mouse-anti-human Axl Ab (1H12-A647 conjugated Ab) diluted 1:3000 in IB. Cells were analyzed immediately, or stored for up to 24 hours at 4° C. before analysis.
Analysis of cells was done on a BD LSR Fortessa or a BD C6 Accuri flow cytometer, and further processing was done using FlowJo v.7.6.

[3] = test system: Slfn11 expression in MOLM-13 cells; assay: Western blot of Slfn11 in MOLM-13 cells, increasing doses; assay type: cell-based, human; details: MOLM-13, 48 hours, increasing doses 0.1 uM to 1.2 uM
Method: (§5) For western blot analysis, cells were lysed on ice using NP-40 lysis buffer with protease- and phosphatase inhibitors. Total protein concentration in lysates was measured using a BCA protein assay kit following the manufacturers instructions. 10% NuPAGE® Bis-Tris precast gels were loaded with 30-50 μg of protein in each well diluted in sample buffer and antioxidant. A 1:1 mix of MagicMark™ XP Western Protein Standard (Invitrogen) and SeeBlue® Plus 2 Pre-Stained Standard was used as protein standard. Gels were run at 50V for 20 min, then at 100V for 1 h30 min. Blotting was done on ice for 1 h 30 min at 100V onto PVDF (pre-activated with MeOH) or nitrocellulose membranes. Membranes were washed in TBS-0.1% Tween-20 (TBS-T), and blocked in TBS-T 5% BSA for at least 1 h at RT. Primary antibody was added at 1:1000 in TBS-T 5% BSA (rabbit-anti-actin Ab was added at 1:2000, rabbit anti-GAPDH Ab was added at 1:3000) in TBS-T 5% BSA, and membranes were incubated over night at 4° C. Membranes were then washed 3× in TBS-T, and incubated in HRP-conjugated secondary antibody at 1:5000 dilution in TBS-T 5% milk for 45 min at RT. Membranes were developed for 1 min using ECL-reagents and imaged with chemiluminescence using a Molecular Imager ChemiDoc™ XRS (BioRad).

SLFN11 = assay: MOLM13 systemic xenograft model: biomarker flow cytometry in CD33-positive cells, SLFN11; assay type: in vivo, mice; details: bone marrows, 50 mg/kg for 4 days
Method: as §1, §2

[4] = test system: SLFN11 expression in Mv4-11 cells; assay: Flow cytometry of total SLFN11 in Mv4-11 cells after long-term treatment; assay type: cell-based, human
Method: as §3
as §4, with “analysis. […]” for “analysis.”

[5] = test system: SLFN11 expression in Kasumi cells; assay: Flow cytometry of total SLFN11 in Kasumi cells after long-term treatment; assay type: cell-based, human; details: 2.5 μM
Method: as §3
as §4, with “analysis. […]” for “analysis.”

SLFN11 transcript [6] = assay: Microarray analysis of subcutaneous Mv4-11 xenograft tumors (study 1 and study 2); assay type: in vivo, NOD/SCID mice; details: for downregulation of SLFN11 transcript (Rank Product Analysis): study 2, Mv4-11 xenografts, vs control
Method: (§6) To identify new potential biomarkers of BGB324 efficacy in AML, microarray analyses of tumor material from several AML studies were performed. In the first two studies, NOD/SCID mice were implanted with subcutaneous Mv4-11 xenografts. In study 1 the mice were treated with control (vehicle) or a single dose of BGB324 (50 or 100 mg/kg), and sacrificed after 24 hours. In study 2 the mice were treated BID for 14 days with control (vehicle), low (25 mg/kg) or high (50 mg/kg) dose of BGB324 for 14 days. In a third study, MOLM13 cells were injected intravenously into the tail vein of NSG mice. After three days of inoculation, the animals were treated with control (vehicle), high (50 mg/kg) or low (25 mg/kg) dose of BGB324 QD until the vehicle-treated animals were moribund (14 days after initiation of treatment). Development of leukemia was confirmed by flow cytometric analyses of human CD33/CD45-positive cells in the blood, spleens and bone marrow, and RNA isolated from spleens were sent for microarray analysis.
One of the most interesting hits from a Rank Product Analysis of study 2 was a transcript called SLFN11.

[7] = test system: SLFN11 expression in OCI-AML5 cells; assay: Flow cytometry of total SLFN11 in OCI-AML5 cells after long-term treatment; assay type: cell-based, human; details: OCI-AML5, 2.5 μM
Method: as §3
as §4, with “analysis. […]” for “analysis.”

SLFN11 transcript [8] = assay: Microarray analysis of spleen RNA, systemic MOLM13 AML model (study 3); assay type: in vivo, NSG mice; details: study 3, systemic MOLM13, 25 or 50 mg/kg QD, 14 days
Method: as §6

pAkt = assay: MOLM13 systemic xenograft model: biomarker flow cytometry in CD33-positive cells, pAkt; assay type: in vivo, mice; details: 50 mg/kg for 4 days
Method: as §1, §2

[9] = test system: Slfn11 expression in OCI-M1 cells; assay: Flow cytometry of Slfn11 expression in OCI-M1 cells after treatment; assay type: cell-based, human; details: OCI-M1, treated at IC50-values for 24, 48 and 72 hours
Method: as §3
as §4, with “analysis. […]” for “analysis.”

pErk = assay: MOLM13 systemic xenograft model: biomarker flow cytometry in CD33-positive cells, pErk; assay type: in vivo, mice; details: 50 mg/kg for 4 days
Method: as §1, §2

[10] = test system: Slfn11 expression in OCI-AML3 cells; assay: Flow cytometry of Slfn11 expression in OCI-AML3 cells after treatment; assay type: cell-based, human; details: OCI-AML3, treated at IC50-values for 24, 48 and 72 hours
Method: as §3
as §4, with “analysis. […]” for “analysis.”

Slfn11 protein = assay: Western blot of MV4-11 subcutaneous tumor xenograft lysates; assay type: in vivo, mice; details: MV4-11 xenografts
Method: as §5
In these studies, mice had been treated with BGB324 25 mg/kg BID and 50 mg/kg BID 2-5 cycle for 14 days, or with a single dose 100 mg/kg (tumors harvested 6 h after treatment).
Since Slfn11 was reduced in only one of two parallel tumor samples after a single treatment, it was decided to examine more lysates from Study 1 by western blot. In this study, mice with subcutaneous MV4-11 tumor xenografts were treated with a single low (50 mg/kg) or high (100 mg/kg) dose of BGB324, and tumors were harvested at different time points, from 4 hours up to 72 hours after treatment. […] Thus, it appears that Slfn11 is reduced in MV4-11 xenografts within 24-72 hours (depending on the drug concentration) after treatment with a single dose of BGB324. The effect of BGB324 on Slfn11 expression in these tumors appears to be long-lasting, as the protein level stays low 72 hours after treatment. However, there appear to be individual differences, and more than two parallel samples of each time point need to be examined in order to better understand the dynamics of Slfn11 reduction in MV4-11 xenografts after BGB324-treatment.

PHGDH = assay: MOLM13 systemic xenograft model: biomarker flow cytometry in CD33-positive cells, PHGDH; assay type: in vivo, mice; details: 50 mg/kg for 4 days
Method: as §1, §2

Structure (SMILES): Nc1nc(Nc2ccc3c(c2)CC[C@@H](N2CCCC2)CC3)nn1-c1cc2c(nn1)-c1ccccc1CCC2 [BGB324]
- percentage of leukemic cells (CD33/CD45-positive) vs. vehicle-treated ([1]; blood): significantly higher percentage
- percentage of leukemic cells (CD33/CD45-positive) vs. vehicle-treated ([1]; bone marrows): no significant differences
- percentage of leukemic cells (CD33/CD45-positive) vs. vehicle-treated ([1]; spleens): no significant differences
- pPLCγ1 in CD33-positive cells (pPLCγ1; bone marrows): significant reduction
- pPLCγ1 in CD33-positive cells (pPLCγ1; spleens): significant reduction
- total protein expression of SLFN11 (flow cytometry, % of control) ([2]; MOLM13, 0.3 μM, 24, 48 and 72 hours): significant reduction
- SLFN11 expression (flow cytometry) ([2]; MOLM-13, 48 hours, increasing doses 0.1 uM to 1.2 uM): dose-dependent downregulation; also recorded: confirmed
- SLFN11 expression (flow cytometry) ([2]; MOLM-13, treated at IC50-values for 24, 48 and 72 hours): marked reduction
- Slfn11 expression (western blot) [3]: dose-dependent downregulation; also recorded: dose-dependent reduction
- Slfn11 expression (western blot) ([3]; listed as BGB324/R428): reduced in a dose-dependent manner
- SLFN11 expression in CD33-positive cells (SLFN11): significant reduction
- total protein expression of SLFN11 (flow cytometry, % of control) ([4]; Mv4-11, 0.1 uM, 72 hours): significantly reduced
- total protein expression of SLFN11 (flow cytometry, % of control) ([4]; Mv4-11, 0.3 μM, 24, 48 and 72 hours): significant reduction
- total protein expression of SLFN11 (flow cytometry, % of control) ([5]; 24 and 48 hours): no significant differences
- total protein expression of SLFN11 (flow cytometry, % of control) ([5]; 72 hours): significant increase
- reduction of SLFN11 transcript (Rank Product Analysis) (SLFN11 transcript [6]; study 1, Mv4-11 xenografts, single dose (50 or 100 mg/kg), sacrificed after 24 hours): 1.449 fold
- SLFN11 transcript regulation after 14d treatment (in words) (SLFN11 transcript [6]; study 2, 25 and 50 mg/kg): highly significant dose-dependent downregulation
- SLFN11 transcript, SAM (significance of microarray) analysis (SLFN11 transcript [6]; study 2, 14 d treatment, q=0.0): reduction of SLFN11 as the most significant (#1) hit
- downregulation of SLFN11 transcript (Rank Product Analysis) (SLFN11 transcript [6]; 25 mg/kg BID for 14 days): 1.98 fold
- downregulation of SLFN11 transcript (Rank Product Analysis) (SLFN11 transcript [6]; 50 mg/kg BID for 14 days): 3.98 fold
- total protein expression of SLFN11 (flow cytometry, % of control) ([7]; 24 and 48 hours): no significant differences
- total protein expression of SLFN11 (flow cytometry, % of control) ([7]; 72 hours): significant increase
- SLFN11 transcript regulation in spleens (SLFN11 transcript [8]): not among the transcripts that were significantly downregulated
- pAkt change in CD33-positive cells (pAkt; bone marrows): not significant
- pAkt change in CD33-positive cells (pAkt; spleens): not significant
- SLFN11 expression (flow cytometry) [9]: marked reduction
- pErk in CD33-positive cells (pErk; bone marrows): significant reduction
- pErk in CD33-positive cells (pErk; spleens): significant reduction
- SLFN11 expression (flow cytometry) [10]: marked reduction
- Slfn11 protein compared to control levels (western blot) (Slfn11 protein; 25 mg/kg BID and 50 mg/kg BID, 14 days): marked reduction
- Slfn11 protein (western blot) (Slfn11 protein; single dose 100 mg/kg, tumors harvested 6 h after treatment): reduced in one of the two parallel samples
- duration of effect on Slfn11 protein level (Slfn11 protein; single dose, 72 hours after treatment): stays low
- time after single dose within which Slfn11 is reduced (Slfn11 protein; single dose, depending on the drug concentration): 24 to 72 h
- Slfn11 protein (western blot) (Slfn11 protein; single high dose 100 mg/kg, 24, 48 and 72 hours after treatment): reduction
- Slfn11 protein (western blot) (Slfn11 protein; single high dose 100 mg/kg, time points earlier than 24 hours (from 4 hours)): not at earlier time points
- Slfn11 protein (western blot) (Slfn11 protein; single low dose 50 mg/kg, 72 hours after treatment): slight reduction
- PHGDH expression in CD33-positive cells (PHGDH; bone marrows): significant reduction
- PHGDH expression in CD33-positive cells (PHGDH; spleens): significant reduction
